Measurements taken from US12065446B2, “Inhibitors of Bruton's tyrosine kinase and method of their use” (JANSSEN PHARMACEUTICA NV, priority 2015, dated 2024).

Molecular target: unphosphorylated-BTK kinase domain (UP-BTK), GST-tagged human BTK (389-659aa) (Homo sapiens (Human), UniProt Q06187)
Experiment: BTK kinase lanthascreen binding assay
Details: competition with 50 nM Tracer 236, 60 minutes; pIC50 = negative log of the IC50 in molar
Experimental: BTK kinase lanthascreen binding assay: A BTK kinase lanthascreen binding assay monitors compound binding to unphosphorylated-BTK kinase domain (UP-BTK), by competing with a fluorescent labeled tracer. […] Data were analyzed using Xlfit™ version 5.3 from ID Business Solutions (Guildford), Microsoft Excel add-in. pIC50 refers to the negative log of the IC50 in molar.

Chain of unphosphorylated-BTK kinase domain (UP-BTK), GST-tagged human BTK (389-659aa) (Q06187 389-659): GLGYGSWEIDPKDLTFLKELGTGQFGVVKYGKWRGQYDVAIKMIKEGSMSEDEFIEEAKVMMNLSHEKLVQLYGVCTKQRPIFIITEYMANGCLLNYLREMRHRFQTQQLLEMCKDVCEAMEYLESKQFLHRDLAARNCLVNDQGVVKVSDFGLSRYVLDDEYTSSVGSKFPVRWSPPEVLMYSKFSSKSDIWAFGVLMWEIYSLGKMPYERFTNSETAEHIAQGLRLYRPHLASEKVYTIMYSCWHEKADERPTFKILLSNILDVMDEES

BTK_I_binding pIC50: 7.11
SMILES: C=CC(=O)N[C@@H]1CC[C@@H](NC(=O)c2sc3nccc4c3c2NC(=O)N4c2ccc(Oc3ccccc3)nc2)C1 (racemic) [Example 188, N-((1RS, 3RS)-3-Acrylamidocyclopentyl)-4-oxo-5-(6-phenoxypyridin-3-yl)-4,5-dihydro-3H-1-thia-3,5,8-triazaacenaphthylene-2-carboxamide]
